Laboratory results taken from PMC12713628 (2025).
Read-outs that look alike come from different tables or passages of the source.

Experiments:
Assay in all cases: ITC
[1] = test system: AI-TES-R3R5HD-T (DNA, aptamer) GGACGACGGGGATTTGGGGTTTTCTATGTTTTTCGTCCTTTTTTTGCTGCGTTCTCCATTCTGG
[2] = test system: CS-R7MP-T (DNA, aptamer) CGGGACGACGGGGATTTTATTTGCACTATGTGGCTCGTTCGGGGTGTGCTGCGTTCTCCATTCTGG; conditions: one-site fit
[3] = test system: CS-R5MP (DNA, aptamer) GGCTCTCGGGACGACGGGGATTTTTGGTGCACTATGTGGTTCGTTCGGGGTGGGCTGCGTTCTCCATTCTGG; conditions: one-site fit
[4] = one-site fit, aptamer identified from Figure 3e legend

Work on `CC(=O)[C@H]1CC[C@H]2[C@@H]3CCC4=CC(=O)CC[C@]4(C)[C@H]3CC[C@]12C` yielded a KD [1, 4] of 9.38 µM.
With `C[C@]12CCC(=O)C=C1CC[C@@H]1[C@@H]2[C@@H](O)C[C@@]2(C)[C@H]1CC[C@]2(O)C(=O)CO` the KD [2] was 5.1 µM and the KD [3] was ~ 2.41 μM.
`C[C@]12CC[C@@H]3c4ccc(O)cc4CC[C@H]3[C@@H]1CC[C@@H]2O` was tested, and the KD [1, 4] was 6.22 µM.
`C[C@]12CC[C@H]3[C@@H](CCC4=CC(=O)CC[C@@]43C)[C@@H]1CC[C@@H]2O` gave a KD [1] of 0.313 µM.
